Where two headings read alike, the source gives them in different places.
Assays:
22Rv1 tumor = 22Rv1 tumor in NSG mice with anti-FITC CAR T cells; assay type: in vivo; conditions: 10 million anti-FITC CAR T cells
[1] = tested on: MDA-PSMA tumors (high PSMA level); assay: MDA-PSMA tumor in NSG mice with anti-FITC CAR T-cells; conditions: for eradication of MDA-PSMA tumors: 10 million anti-FITC CAR T-cells
Experimental: MDA-PSMA cells (high PSMA level; 5 million cells) were implanted into each NSG mouse by subcutaneous injection. […] The tumor volume and body weight were monitored regularly. Tumor volume was calculated using the formula: (length*width^2)/2. […] MDA-PSMA cells (5 million) were implanted into each NSG mouse by subcutaneous injection. […] The volumes of the tumors and the body weights of the mice were monitored regularly. Tumor volume was calculated using the formula: (length*width^2)/2.

[2] = tested on: MDA-MB-231-PSMA tumor cells; conditions: mouse, in vivo
Experimental: (§3) The mice were euthanized at the indicated time points after injection. Tumors were dissected and dissociated into single cells. Fluorescent intensity of FITC indicating the total retention of the adapters in the tumor cells were analyzed by flow cytometry. To analyze the surface retention of the adapters on the tumor cell surface, the dissociated tumor cells were stained with APC-anti-FITC antibody, and the fluorescent intensity of APC was analyzed by flow cytometry.

22Rv1 cells [3] = assay: 22Rv1 / anti-FITC CAR T co-culture, 48 hours; assay type: cell-based
Experimental: The number of 22Rv1 cells was counted at the end of the co-culture. The cytotoxicity of anti-FITC CAR T cells was calculated using the formula: (number of untreated 22Rv1 cells−number of treated 22Rv1 cells)/number of untreated 22Rv1 cells*100%. Concentrations of IFNγ in the co-culture medium were analyzed by ELISA using human IFNγ ELISA kit (Biolegend).

[4] = tested on: MDA-MB-231-PSMA tumor cells; assay: Total and surface retention of adapters on MDA-PSMA tumor cells in vivo (flow cytometry)
Experimental: as §3

[5] = tested on: TagCAR (universal anti-fluorescein CAR); assay: Competition assay against FL-AF647 on TagCAR T cells; assay type: binding; conditions: Ki=IC50/(1+[S]/Km), [FL-AF647]=100 nM, triplicates from different donors; read-out: mean calculated inhibitor constant (Ki)
Experimental: PSMAL1-PEG6-FITC strongly binds to TagCAR T cells generated using TagCAR lentiviral particles. […] Due to fluorescein fluorescence being quenched when bound by TagCAR, TagCAR T cells were instead incubated with saturating levels of FL-AF647, which was then competed off by increasing concentrations of PSMAL1-PEG6-FITC. As compared to the antigen-only control sodium fluorescein (NaFL), lower concentrations of PSMAL1-PEG6-FITC were necessary to compete with FL-AF647, as detected by the mean fluorescent intensity (MFI) of FL-AF647.

[6] = tested on: PSMA+ MDA-MB-231 tumor cells; assay: TagCAR T cell coculture with PSMA-overexpressing MDA-MB-231 tumor cells; assay type: cell-based
Experimental: PSMAL1-PEG6-FITC elicits dose-dependent TagCAR T cell function in vitro. The efficacy of TagCAR T cells generated as described in Example 42 mediated by PSMAL1-PEG6-FITC on PSMA-positive tumor cells was investigated in vitro. The normalized fold tumor cell growth of PSMA-overexpressing (PSMA^+) MDA-MB-231 tumor cells was measured every four hours during an 88-hour coculture of PSMA^+ MD-MB-231 tumor cells and different concentrations of PSMAL1-PEG6-FITC in the presence of TagCAR T cells generated as described in Example 42.
In addition, cytokine levels were measured in culture supernatants 24 hours following the addition of TagCAR T cells generated as described in Example 42 and different concentrations of PSMAL1-PEG6-FITC to PSMA MD-MB-231 tumor cells.
The presence of TagCAR+ cells (FIG. 45C) and presence of CD25+(FIG. 45D) in CD3+ T cells were also measured after 88 hours of coculture with PSMA^+ MDA-MB-231 tumor cells with different concentrations of PSMAL1-PEG6-FITC. CD3+ T cells with TagCAR had higher percentages of CD25+ as compared to CD3+ T cells without TagCAR.

PSMA [7] = molecular target: T1, PSMA (Homo sapiens, UniProt Q04609); assay: SurfaceTag on-cell binding to PSMA+ MDA-MB-231 tumor cells
T1 construct: expressed in transfected cells; host or cells: MDA-MB-231 (MDA-PSMA / PSMA+ MDA-MB-231)
Experimental: PSMAL1-PEG6-FITC strongly localizes on the surface of PSMA-positive tumor cells. To characterize the on-cell binding affinity of PSMAL1-PEG6-FITC to PSMA-expressing tumor cells, different concentrations of PSMAL1-PEG6-FITC were incubated with […] tumor cells that either over-expressed PSMA (PSMA^+) or were wildtype (PSMA−). Levels of surface fluorescein antigen on MDA-MB-321 tumor cells were detected using an anti-fluorescein antibody (FIG. 44A).

MDA-PSMA cells = assay: Retention in MDA-PSMA cells in vitro (confocal, flow cytometry); assay type: cell-based; conditions: 1 μM one hour, washed, 37 C
Experimental: (§1) Unbound compounds were washed away, and the cells were cultured in RPMI containing 10% FBS at 37° C. with 5% CO2. At indicated time points, the cells were imaged under a confocal microscope to analyze the intensity and location of FITC. […] To analyze the surface-bound FITC, the cells were stained with APC-anti-FITC antibody for 30 minutes on ice at different time points. The fluorescence intensity of APC was analyzed by flow cytometer.

22Rv1 cells [8] = assay: Retention in 22Rv1 cells in vitro; assay type: cell-based; conditions: 1 μM one hour, washed, 37 C
Experimental: as §1

MDA-MB-231-PSMA tumors = assay: Fluorescent imaging of MDA-PSMA tumor bearing mice; assay type: in vivo; conditions: 500 nmol/kg intravenously
From the text: MDA-PSMA tumor bearing mice were intravenously injected with the indicated adapters at 500 nmol/kg. Fluorescent images of the mice were taken in the Spectral Ami imaging system at the indicated time points after injection.

PSMA [9] = molecular target: T1, PSMA; assay: Binding to MDA-PSMA cells by flow cytometry (MFI of FITC)
Experimental: (§2) MDA-PSMA cells (0.2 million) were incubated with 2-fold serial diluted adapters starting from 500 nM in complete RPMI medium (RPMI+10% FBS) for 1 hour at room temperature. Cells were washed twice with 2% FBS in PBS and resuspended in the same buffer. Fluorescent intensity of fluorescein isothiocyanate (FITC) was analyzed by flow cytometer.
MDA-PSMA cells (0.2 million) were incubated with 1 μM of DUPA-FITC conjugates with different PEG linkers in complete RPMI medium (RPMI+10% FBS) for 1 hour at room temperature. Free compounds were washed away, and fluorescent intensity of FITC was analyzed by flow cytometer. To analyze the surface exposure of FITC moiety, the stained cells were incubated with APC-anti-FITC on ice for 30 minutes.
as §2, with “FITC” for “fluorescein isothiocyanate (FITC)”

T1 sequence (Q04609 whole entry): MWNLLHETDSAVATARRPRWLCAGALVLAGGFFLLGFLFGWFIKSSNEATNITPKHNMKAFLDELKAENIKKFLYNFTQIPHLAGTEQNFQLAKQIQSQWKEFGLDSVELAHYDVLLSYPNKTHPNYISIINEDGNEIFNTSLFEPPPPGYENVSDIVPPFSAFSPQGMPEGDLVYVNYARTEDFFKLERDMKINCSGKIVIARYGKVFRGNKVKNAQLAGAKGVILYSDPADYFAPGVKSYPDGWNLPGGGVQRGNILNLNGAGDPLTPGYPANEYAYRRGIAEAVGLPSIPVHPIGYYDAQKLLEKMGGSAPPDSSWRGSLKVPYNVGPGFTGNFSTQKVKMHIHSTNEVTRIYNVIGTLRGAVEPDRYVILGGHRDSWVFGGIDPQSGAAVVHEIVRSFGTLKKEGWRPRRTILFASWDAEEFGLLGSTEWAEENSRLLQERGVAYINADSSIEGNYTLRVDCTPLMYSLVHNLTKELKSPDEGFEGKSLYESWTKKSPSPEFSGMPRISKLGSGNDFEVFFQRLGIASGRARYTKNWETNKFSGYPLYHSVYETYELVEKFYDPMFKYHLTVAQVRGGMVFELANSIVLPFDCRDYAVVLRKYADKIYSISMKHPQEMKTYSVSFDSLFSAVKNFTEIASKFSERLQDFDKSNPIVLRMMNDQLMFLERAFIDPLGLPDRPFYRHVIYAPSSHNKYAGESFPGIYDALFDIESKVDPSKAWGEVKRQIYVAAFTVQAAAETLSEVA

For `CC(C)(C)OC(=O)CC[C@H](NC(=O)N[C@@H](CCC(=O)OCc1ccccc1)C(=O)OC(C)(C)C)C(=O)OC(C)(C)C` (stereo in doubt) [DUPA-PEG6-FITC, 2-[3-(3-Benzyloxycarbonyl-1-tert-butoxycarbonyl-propyl)-ureido]pentanedioic Acid Di tert-butyl Ester], the “growth of 22Rv1 tumor” value (22Rv1 tumor) was “didn't show much efficacy”, the “eradication of MDA-PSMA tumors” value [1] was “good efficacy on eliminating MDA-PSMA tumors” and the body weight loss ([1]; mouse, in vivo) was “no body weight loss was observed”. For the same molecule, the “tumor cells that retained adapter on the surface” value [2] was 9% and the “tumor cells that still had adapter in the cells (total FITC)” value [2] was 13%.
With `O=C(O)CC[C@H](NC(=O)N[C@@H](CCCCNC(=O)[C@H](Cc1ccc2ccccc2c1)NC(=O)[C@H]1CC[C@H](CNC(=O)CCOCCOCCOCCOCCOCCOCCNC(=S)Nc2ccc(-c3c4ccc(=O)cc-4oc4cc(O)ccc34)c(C(=O)O)c2)CC1)C(=O)O)C(=O)O` [PSMAL1-PEG6-FITC] the “lysis of 22Rv1 cells by anti-FITC CAR-T cells” value (22Rv1 cells [3]; low concentration) was “much higher than DUPA-PEG6-FITC at low concentration”, the “IFNγ secreted by anti-FITC CAR-T cells” value (22Rv1 cells [3]; low concentrations) was “higher than DUPA-PEG6-FITC at low concentrations” and the “tumor cells that retained adapter on the surface” value ([4]; 48 hours post-injection) was 65%. For the same molecule, the “tumor cells that still had adapter in the cells (total FITC)” value ([4]; 48 hours post-injection) was 77%, the “tumor cells that retained adapter (total FITC)” value ([4]; 144 hours post-injection) was 45% and the “tumor cells that retained adapter on the surface” value ([4]; 144 hours post-injection) was 34%. The Ki [5] was 9.9 nM, the “normalized fold tumor cell growth” value ([6]; 88-hour coculture with TagCAR T cells) was “tumor size decreased” and the “IFNg and IL-2 levels in culture supernatants” value ([6]; 24 hours) was “increased with increasing doses”. For the same molecule, the “Bmax (total antigen amount)” value (PSMA [7]; PSMA+ tumor cells) was 2.6×10^6 MFI, the Kd (PSMA [7]; PSMA+ tumor cells, anti-fluorescein antibody, read-out: Kd (on-cell binding affinity)) was 1.29 nM and the “localization on surface of PSMA-expressing tumor cells” value (PSMA [7]; PSMA+ vs PSMA- cells) was “specifically localized on the surface of PSMA-expressing tumors”. The “growth of 22Rv1 tumor” value (22Rv1 tumor) was “inhibited the growth of 22Rv1 tumor significantly”, the “retention in MDA-MB-231-PSMA cells (confocal images)” value (MDA-PSMA cells) was “stayed longer in MDA-MB-231-PSMA cells than DUPA-PEG6-FITC” and the “retention in MDA-PSMA cells expressing different levels of PSMA (flow cytometry)” value (MDA-PSMA cells) was “stayed longer in MDA-PSMA cells expressing different levels of PSMA than DUPA-PEG6-FITC”. The “retention in 22Rv1 cells (flow cytometry)” value (22Rv1 cells [8]) was “stayed longer in 22Rv1 cells”, the “eradication of MDA-PSMA tumors” value [1] was “good efficacy on eliminating MDA-PSMA tumors” and the body weight loss ([1]; during treatment) was “no body weight loss was observed”. For the same molecule, the “retention in MDA-MB-231-PSMA tumors (fluorescent images)” value (MDA-MB-231-PSMA tumors) was “Better Retention in MDA-MB-231-PSM4 Tumors than DUPA-PEG6-FITC and DUPA-FITC”, the “binding affinity relative to DUPA-PEG6-FITC” value (PSMA [9]) was “five-fold higher” and the “binding affinity and total binding (MFI of FITC)” value (PSMA [9]; 1 hour room temperature) was “Higher Binding Affinity and Higher Total Binding than DUPA-PEG6-FITC”.

Source: patent US20260248923A1, “BI-SPECIFIC ADAPTERS AND THEIR USE WITH UNIVERSAL CAR-T CELLS IN THE TREATMENT OF TUMORS AND THE INHIBITION OF CANCER-ASSOCIATED FIBROBLASTS” (priority 2023, published 2026)
